Measurements taken from paper PMC10044120, “Potent and selective covalent inhibition of the papain-like protease from SARS-CoV-2” (Nature Communications, 2023).
Like-named read-outs stand apart in the source and are kept apart here.

Tests used:
SARS-CoV-2 USA-WA1/2020 = test: CPE assay, neutral red, Vero E6 cells with 2 μM CP-100356, USA-WA1/2020; assay type: cell-based; details: for Percent Cytopathic Effect (Neutral Red): USA-WA1/2020
in vitro [1] = details: human
[2] = Pharmacokinetics in male ICR mice (IV and PO)
in vitro [3] = details: African green monkey
Vero E6 cells [4] = system: Vero E6 cells
Vero E6 cells [5] = details: African green monkey, 48 h
in vitro [6] = details: African green monkey; remark: listed apart in the source
[7] = male, ICR (CD-1), mouse, plasma, iv, 3 mg/kg

Q: What does the source list for `COC(=O)/C=C/C(=O)NNC(=O)CCc1ccccc1C(=O)N[C@H](C)c1cccc2ccccc12` [Compound 7, methyl(R,E)-4-(2-(3-(2-((1-(naphthalen-1 yl)ethyl)carbamoyl)phenyl)propanoyl)hydrazineyl)-4-oxobut-2-enoate]?
A: EC50 (SARS-CoV-2 USA-WA1/2020; Severe acute respiratory syndrome coronavirus 2, Vero C1008): 0.068 µM; Percent Cytopathic Effect (Neutral Red) (SARS-CoV-2 USA-WA1/2020; 0.01 µM): 90.5%; Percent Cytopathic Effect (Neutral Red) (SARS-CoV-2 USA-WA1/2020; 0.1 µM): 41.8%; Percent Cytopathic Effect (Neutral Red) (SARS-CoV-2 USA-WA1/2020; 1 µM): 46.4%; Percent Cytopathic Effect (Neutral Red) (SARS-CoV-2 USA-WA1/2020; 10 µM): 13.5%; CC50 (in vitro [1]): > 10 µM; cytotoxicity at 0.01 µM (in vitro [1]): 8.4%; cytotoxicity at 0.1 µM (in vitro [1]): 3.4%; cytotoxicity at 1 µM (in vitro [1]): 0.326%; cytotoxicity at 10 µM (in vitro [1]): 18.1%; cytotoxicity at 0.01 µM (in vitro [1]; Percent Cytotoxicity (Neutral Red), Caco-2, SARS2-740 (Delta set), 0.01 µM): 0%; cytotoxicity at 0.1 µM (in vitro [1]; Percent Cytotoxicity (Neutral Red), Caco-2, SARS2-740 (Delta set), 0.1 µM): 0%; cytotoxicity at 1 µM (in vitro [1]; Percent Cytotoxicity (Neutral Red), Caco-2, SARS2-740 (Delta set), 1 µM): 8%; cytotoxicity at 10 µM (in vitro [1]; Percent Cytotoxicity (Neutral Red), Caco-2, SARS2-740 (Delta set), 10 µM): 4.4%; cytotoxicity at 0.01 µM (in vitro [1]; Percent Cytotoxicity (Neutral Red), Caco-2, SARS2-740 (USA-WA1/2020 set), 0.01 µM): 1.6%; cytotoxicity at 0.1 µM (in vitro [1]; Percent Cytotoxicity (Neutral Red), Caco-2, SARS2-740 (USA-WA1/2020 set), 0.1 µM): 0%; cytotoxicity at 1 µM (in vitro [1]; Percent Cytotoxicity (Neutral Red), Caco-2, SARS2-740 (USA-WA1/2020 set), 1 µM): 0%; cytotoxicity at 10 µM (in vitro [1]; Percent Cytotoxicity (Neutral Red), Caco-2, SARS2-740 (USA-WA1/2020 set), 10 µM): 39.6%; oral bioavailability / exposure following PO dosing ([2]; 10 mg/kg p.o., male ICR mice): not orally bioavailable; AUC(0-inf) [2, 7]: 5 ng·h/mL; AUC(0-t) [2, 7]: 4 ng·h/mL; C0 [2, 7]: 63 ng/mL; Vd [2, 7]: 35.2 L/kg; half-life [2, 7]: 3.6 min; CC50 (in vitro [3]): > 10 µM; cytotoxicity at 0.01 µM (in vitro [3]): 6.3%; cytotoxicity at 0.1 µM (in vitro [3]): 1.1%; cytotoxicity at 1 µM (in vitro [3]): 3.3%; cytotoxicity at 10 µM (in vitro [3]): 27.4%; cytotoxicity at 0.01 µM (in vitro [3]; Percent Cytotoxicity (Neutral Red), Vero E6, SARS2-733 (Delta set), 0.01 µM): 11.8%; cytotoxicity at 0.1 µM (in vitro [3]; Percent Cytotoxicity (Neutral Red), Vero E6, SARS2-733 (Delta set), 0.1 µM): 7.1%; cytotoxicity at 1 µM (in vitro [3]; Percent Cytotoxicity (Neutral Red), Vero E6, SARS2-733 (Delta set), 1 µM): 4.8%; cytotoxicity at 10 µM (in vitro [3]; Percent Cytotoxicity (Neutral Red), Vero E6, SARS2-733 (Delta set), 10 µM): 9.3%; cytotoxicity at 0.01 µM (in vitro [3]; Percent Cytotoxicity (Neutral Red), Vero E6, SARS2-735, 0.01 µM): 0%; cytotoxicity at 0.1 µM (in vitro [3]; Percent Cytotoxicity (Neutral Red), Vero E6, SARS2-735, 0.1 µM): 0%; cytotoxicity at 1 µM (in vitro [3]; Percent Cytotoxicity (Neutral Red), Vero E6, SARS2-735, 1 µM): 3.8%; cytotoxicity at 10 µM (in vitro [3]; Percent Cytotoxicity (Neutral Red), Vero E6, SARS2-735, 10 µM): 38.5%; CC50 (Vero E6 cells [4]; Vero E6, 2 μM CP-100356, Delta rows): > 10 µM; CC50 (Vero E6 cells [4]; Vero E6, 2 μM CP-100356, Omicron rows): > 10 µM

Q: With `C[C@@H](NC(=O)c1ccccc1CCC(=O)NNC(=O)CCl)c1cccc2ccccc12` [Compound 9, (R)-2-(3-(2-(2-chloroacetyl)hydrazineyl)-3-oxopropyl)-N-(1-(naphthalen-1-yl)ethyl)benzamide] as the molecule, how does the “cytotoxicity, %cell viability” value (Vero E6 cells [5]; 2.08 µM) read?
A: Its value is 100.620%.

Q: And the “cytotoxicity, %cell viability” value (Vero E6 cells [5]; 8.33 µM)?
A: The value was 103.333%.

Q: What about the “cytotoxicity, %cell viability” value (Vero E6 cells [5]; 16.65 µM) of the same molecule?
A: Its value is 94.042%.

Q: What about the CC50 at 48 h (in vitro [6]; CC50) of the same molecule?
A: The CC50 at 48 h was over 30 µM.

Q: What about the viability at 48 h, 2.08 µM (in vitro [6]; cytotoxicity, %cell viability) of the same molecule?
A: The viability at 48 h, 2.08 µM was 102%.

Q: What about the viability at 48 h, 8.33 µM (in vitro [6]; cytotoxicity, %cell viability) of the same molecule?
A: Its viability at 48 h, 8.33 µM is 99.1%.

Q: What about the viability at 48 h, 16.65 µM (in vitro [6]; cytotoxicity, %cell viability) of the same molecule?
A: Its viability at 48 h, 16.65 µM is 91.4%.
